The term pest or weed control denotes how far the test organism was held down. High values mean a strong effect, low ones a weak effect. A word on the melting point: it is the temperature, or range, at which the solid turns liquid.

The test system of the first data set is Phakopsora pachyrhizi. Kind of data set: Test D: preventive spray on soybean seedlings, Asian soybean rust disease rating. The class given is in vivo. The note with it: 216 h, 100 = 100% disease control, 0 = no control. An excerpt: (§1) General protocol for preparing test suspensions for Tests A-F: the test compounds were first dissolved in acetone in an amount equal to 3% of the final volume and then suspended at the desired concentration (in ppm) in acetone and purified water (50/50 mix by volume) containing 250 ppm of the surfactant PEG400 (polyhydric alcohol esters). The resulting test suspensions were then used in Tests A-F.
The test solution was sprayed to the point of run-off on soybean seedlings. The following day the seedlings were inoculated with a spore suspension of Phakopsora pachyrhizi (the causal agent of Asian soybean rust) and incubated in a saturated atmosphere at 22° C. for 24 h and then moved to a growth chamber at 22° C. for 8 days, after which time visual disease ratings were made.
(§2) A rating of 100 indicates 100% disease control and a rating of 0 indicates no disease control (relative to the controls). A dash (-) indicates the compound was not tested.
The molecule `COC(=O)NCc1cc(-c2ncn(-c3c(F)cc(Cl)cc3F)n2)ccc1C` [Compound 105] returned a pest or weed control at 10 ppm of 92%.

System in a further data set: not given
Assay: not given
Conditions: not given
`COC(=O)NCc1cc(-c2cn(-c3c(F)cc([N+](=O)[O-])cc3F)nn2)ccc1C` [Compound 132, methyl N-[[5-[1-(2,6-difluoro-4-nitrophenyl)-1H-1,2,3-triazol-4-yl]-2-methylphenyl]methyl]carbamate] gave a melting point of 174 to 178 °C.
Take `COC(=O)NCc1cc(-c2ccn(-c3c(F)cc([N+](=O)[O-])cc3F)n2)ccc1C` [Compound 1, methyl N-[[5-[1-(2,6-difluoro-4-nitrophenyl)-1H-pyrazol-3-yl]-2-methyl-phenyl]methyl]carbamate]: the melting point was 131 to 134 °C.
For the molecule `COC(=O)NCc1cc(-c2ccn(-c3c(F)cc(OC(C)C)cc3F)n2)ccc1C` [Compound 14, methyl N-[[5-[1-[2,6-difluoro-4-(1-methylethoxy)phenyl]-1H-pyrazol-3-yl]-2-methylphenyl]methyl]carbamate], the melting point was in the range of 133 to 134 °C.
On the same count and under the same terms, the figure for `COC(=O)NCc1cc(-c2ncn(-c3c(F)cc(Cl)cc3F)n2)ccc1C` [Compound 105] is 166 to 170 °C; for `COC(=O)NCc1cc(-c2ccn(-c3c(F)cc(C=O)cc3F)n2)ccc1C` [Compound 67, methyl N-[[5-[1-(2,6-difluoro-4-formylphenyl)-1H-pyrazol-3-yl]-2-methyl-phenyl]methyl]carbamate] it is 156 to 160 °C.
`COC(=O)NCc1cc(-c2cnn(-c3c(F)cc(N)cc3F)n2)ccc1C` [Compound 115, methyl N-[[5-[2-(4-amino-2,6-difluorophenyl)-2H-1,2,3-triazol-4-yl]-2-methylphenyl]methyl]carbamate] showed a melting point of 144 to 148 °C.
Molecule `COC(=O)NCc1cc(-c2cnn(-c3c(F)cc([N+](=O)[O-])cc3F)n2)ccc1C` [Compound 118, methyl N-[[5-[2-(2,6-difluoro-4-nitrophenyl)-2H-1,2,3-triazol-4-yl]-2-methyl-phenyl]methyl]carbamate] yielded a melting point of 152 to 156 °C.
The molecule `COC(=O)NCc1cc(-c2ccn(-c3c(F)cc(C(=O)OC)cc3F)n2)ccc1C` [Compound 70, methyl 3,5-difluoro-4-[3-[3-[[(methoxycarbonyl)amino]methyl]-4-methyl-phenyl]-1H-pyrazol-1-yl]benzoate] came in with a melting point of 120 to 122 °C.
Molecule `COC(=O)NCc1cc(-c2ccn(-c3c(F)cc(O)cc3F)n2)ccc1C` [Compound 10, methyl N-[[5-[1-(2,6-difluoro-4-hydroxyphenyl)-1H-pyrazol-3-yl]-2-methylphenyl]methyl]carbamate] gave a melting point of 178 to 180 °C.
Molecule `COC(=O)NCc1cc(-c2ccn(-c3c(F)cc(N)cc3F)n2)ccc1C` [Compound 5, methyl N-[[5-[1-(4-amino-2,6-difluorophenyl)-1H-pyrazol-3-yl]-2-methyl-phenyl]methyl]carbamate] showed a melting point of 168 to 171 °C.
`COC(=O)NCc1cc(-c2ccn(-c3c(F)cc(Br)cc3F)n2)ccc1C` [Compound 7, methyl N-[[5-[1-(4-bromo-2,6-difluorophenyl)-1H-pyrazol-3-yl]-2-methyl-phenyl]methyl]carbamate] had a melting point of 138 to 139 °C.
The molecule `COC(=O)NCc1cc(-c2cnn(-c3c(F)cc(Cl)cc3F)n2)ccc1C` [Compound 117, methyl N-[[5-[2-(4-chloro-2,6-difluorophenyl)-2H-1,2,3-triazol-4-yl]-2-methylphenyl]methyl]carbamate] had a melting point of 108 to 112 °C.
In turn, `COC(=O)NCc1cc(-c2ccn(-c3c(F)cc(CO)cc3F)n2)ccc1C` [Compound 71, methyl N-[[5-[1-[2,6-difluoro-4-(hydroxymethyl)phenyl]-1H-pyrazol-3-yl]-2-methylphenyl]methyl]carbamate] displayed a melting point of 183 to 184 °C.

For a further data set, the system named is Puccinia recondita f. sp. tritici. Kind of data set: Test B: preventive spray on wheat seedlings, wheat leaf rust disease rating. The data set is classed as in vivo. As to conditions: 192 h, 100 = 100% disease control, 0 = no control.
Excerpt: as §1
The test solution was sprayed to the point of run-off on wheat seedlings. The following day the seedlings were inoculated with a spore suspension of Puccinia recondita f. sp. tritici (the causal agent of wheat leaf rust) and incubated in a saturated atmosphere at 20° C. for 24 h, and then moved to a growth chamber at 20° C. for 7 days, after which time disease ratings were made.
as §2
`COC(=O)NCc1cc(-c2ncn(-c3c(F)cc(Cl)cc3F)n2)ccc1C` [Compound 105] gave a pest or weed control at 10 ppm of 100%.
